# Laboratory results published in patent US10265270B2, “Solid dispersion of decoquinate, a preparation process and its application” (GUANGZHOU CAS LAMVAC BIOTECH CO., LTD., priority 2015, dated 2019).
# Tests used:
# [1] = In vitro dissolution test (paddle method); type: physicochemical; conditions: cumulative in vitro dissolution rate, 0.1 N HCl and 10 mM SDS, 37° C., 50 rpm
# Procedure: The dissolution medium was a solution of 0.1 N hydrochloric acid (HCl) and 10 mM sodium dodecyl sulfonate (SDS). The instrument used in the test was RC-6 dissolution rate apparatus (Tianjin). The instrument parameters were set to 37° C., 50 rpm, the paddle method. To each dissolution vessel was added 900 ml of dissolution medium followed by initiating the instrument. When the temperature of the medium in each vessel reached 37° C., corresponding testing sample was added. One ml of sample solution was taken out at time points of 10, 20, 40, 60, 90, 120, 180, 240 and 270 minute respectively, and then 1 ml of dissolution medium was added back to supplement the vessel volume. The sample solutions collected from dissolution testing was passed through a 0.45 μm filter and the filtrate was analyzed by HPLC (Agilent, 1260) to determine the amount of DQ. An isocratic mobile phase of 80% ethanol and 20% water and a wavelength 260 nm were chosen for HPLC analysis.
# [2] = Thermogravimetric analysis; type: physicochemical; conditions: at 250.5° C., heating rate 10° C./min, nitrogen
# Procedure: The pure DQ was weighed for thermogravimetric analysis. The instruments used in the analysis included a balance with 0.0001 accuracy (Sartorius, available from Sartorius Scientific Instruments, Model: BSA124S) and a thermogravimetric analyzer (NETZSCH, Model: TG209F1, Germany).
# Detection conditions, nitrogen: 20 mL/min, scanning procedures: temperature was increased to 350° C. from room temperature, heating rate: 10° C./min; detection was performed based on the General Rules for Thermal Analysis JY/T014-1996.
# Plasmodium berghei ANKA = assay: In vivo efficacy experiment, mice inoculated with sporozoites; conditions: NIH female mice, after 21 days; DQ 3, 10, 30 mg/kg; primaquine 30 mg/kg
# Procedure: The NIH female mice used for the experiment were raised at least for 7 days after arrival. At the start of experiment, the mice were 7 weeks old. Only one mouse was housed in each cage maintained in a room with a temperature range of 18 to 26° C., a relative humidity of 34% to 68% in a 12/12 h light-dark cycle. Food and water were provided ad libitum during quarantine and throughout the study. This experiment was carried out in strict accordance with the relevant animal testing regulations (Guide for the Care and Use of Laboratory Animals, NRC publication, 2011 edition). The DQ suspension used in the animal experiment was from the product of Example 1, prepared with saline and subjected to ultrasonic treatment for 5 minutes. […] The detection of Plasmodium parasitemia was performed as follows: conventional method was used to count red blood cells per mm^3 of blood in that a thin film of blood was prepared and stained with 3% Giemsa for 20 minutes; and then the number of infected red blood cells per 1000 red blood cells was counted under oil microscope to obtain erythrocyte infected rate (EIR, %o). Survival rate was calculated on day 22 post-infection.
# The dosage of product of Example 1 was calculated based on decoquinate mg/kg body weight, the negative control group used was saline, and the positive control group used 30 mg primaquine per kg body weight. […]
Dissolved at 60 min ([1]; 60 min),Dissolved at 90 min ([1]; 90 min),amount of DQ remaining by weight in thermogravimetric analysis [2],Compound,animal survival (Plasmodium berghei ANKA)
6.87,14.60,99 % by weight,"CCCCCCCCCCOc1cc2c(O)c(C(=O)OCC)cnc2cc1OCC [Pure DQ, Decoquinate]",–
–,–,–,COc1cc(NC(C)CCCN)c2ncccc2c1 (stereo not shown) [primaquine],all animals survived
